Measured values as given in ChEMBL document CHEMBL1126309, “Aliphatic propargylamines: potent, selective, irreversible monoamine oxidase B inhibitors” (J Med Chem, 1992).

Legend:
[1] = biological target: T1, Amine oxidase [flavin-containing] B (Rattus norvegicus, UniProt P19643); test: Inhibition of Monoamine oxidase B of rat liver mitochondrial membranes; type: cell membranes, Membrane
T1 sequence (P19643 whole entry): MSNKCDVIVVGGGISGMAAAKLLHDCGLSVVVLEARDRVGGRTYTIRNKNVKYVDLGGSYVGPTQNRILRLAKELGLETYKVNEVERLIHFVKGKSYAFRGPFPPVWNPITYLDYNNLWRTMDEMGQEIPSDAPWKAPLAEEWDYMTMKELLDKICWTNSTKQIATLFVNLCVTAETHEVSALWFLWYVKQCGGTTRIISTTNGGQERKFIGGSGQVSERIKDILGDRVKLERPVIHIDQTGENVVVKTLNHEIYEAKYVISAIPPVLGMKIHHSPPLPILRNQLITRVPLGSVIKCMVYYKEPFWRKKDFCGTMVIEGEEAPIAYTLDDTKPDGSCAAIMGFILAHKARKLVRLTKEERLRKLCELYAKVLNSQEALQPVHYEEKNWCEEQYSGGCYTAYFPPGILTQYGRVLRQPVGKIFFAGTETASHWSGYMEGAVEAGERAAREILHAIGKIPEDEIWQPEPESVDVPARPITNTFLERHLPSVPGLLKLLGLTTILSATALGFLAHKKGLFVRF

[2] = biological target: T2, Amine oxidase [flavin-containing] A (Rattus norvegicus, UniProt P21396); test: Inhibition of Monoamine oxidase A of rat liver mitochondrial membranes; type: cell membranes, Membrane
T2 sequence (P21396 whole entry): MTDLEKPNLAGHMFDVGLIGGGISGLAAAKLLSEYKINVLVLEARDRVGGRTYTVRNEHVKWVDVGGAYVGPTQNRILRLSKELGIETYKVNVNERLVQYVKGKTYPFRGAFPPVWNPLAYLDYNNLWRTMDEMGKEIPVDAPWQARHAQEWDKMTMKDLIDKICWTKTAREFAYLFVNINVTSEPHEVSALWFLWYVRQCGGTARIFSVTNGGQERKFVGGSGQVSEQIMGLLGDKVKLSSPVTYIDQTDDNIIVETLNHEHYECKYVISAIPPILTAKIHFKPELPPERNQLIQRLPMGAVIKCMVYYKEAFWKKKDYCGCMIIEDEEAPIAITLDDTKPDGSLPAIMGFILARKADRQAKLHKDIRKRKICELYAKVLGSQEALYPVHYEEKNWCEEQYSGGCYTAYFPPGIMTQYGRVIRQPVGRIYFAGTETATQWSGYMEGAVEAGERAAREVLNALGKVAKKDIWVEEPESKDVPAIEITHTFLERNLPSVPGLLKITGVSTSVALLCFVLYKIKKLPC

[3] = system: Mus musculus; test: MAO activities in the mouse brain after intraperitoneal administration of compound towards 5-HT (5 x 10e-4 M) substrate; type: functional; details: ip, read-out: ID50 (the source's name)
[4] = system: Mus musculus; test: MAO activities in the mouse brain after intraperitoneal administration of compound towards PE (1.9 x 10e-5 M) substrate; type: functional; details: ip, read-out: ID50 (the source's name)
[5] = system: Mus musculus; test: MAO activities in the mouse brain after oral administration of compound towards 5-HT (5 x 10e-4 M) substrate; type: functional
[6] = system: Mus musculus; test: MAO activities in the mouse brain after oral administration of compound towards PE (1.9 x 10e-5 M) substrate; type: functional
[7] = system: Rattus norvegicus; test: MAO activity evaluated in dissected forebrain of rat after 2 hr of administration; type: functional
[8] = system: Mus musculus; test: Compound was evaluated for MAO-A activity after 9 day of chronic peritoneal administration in mouse fore brain at dose of 0.2 mg/kg; type: functional
[9] = system: Mus musculus; test: Compound was evaluated for MAO-A activity after 9 days of chronic peritoneal administration in mouse fore brain at dose of 0.05 mg/kg; type: functional
[10] = system: Mus musculus; test: Compound was evaluated for MAO-B activity after 1 day of chronic peritoneal administration in mouse fore brain at dose of 0.05 mg/kg; type: functional
[11] = system: Mus musculus; test: Compound was evaluated for MAO-B activity after 1 day of chronic peritoneal administration in mouse fore brain at dose of 0.2 mg/kg; type: functional
[12] = system: Mus musculus; test: Compound was evaluated for MAO-B activity after 20 day of chronic peritoneal administration in mouse fore brain at dose of 0.2 mg/kg; type: functional
[13] = system: Mus musculus; test: Compound was evaluated for MAO-B activity after 20 days of chronic peritoneal administration in mouse fore brain at dose of 0.05 mg/kg; type: functional
[14] = system: Mus musculus; test: Compound was evaluated for MAO-A activity after 1 day of chronic peritoneal administration in mouse fore brain at dose of 0.05 mg/kg; type: functional
[15] = system: Mus musculus; test: Compound was evaluated for MAO-A activity after 1 day of chronic peritoneal administration in mouse fore brain at dose of 0.2 mg/kg; type: functional
[16] = system: Mus musculus; test: Compound was evaluated for MAO-A activity after 20 day of chronic peritoneal administration in mouse fore brain at dose of 0.2 mg/kg; type: functional
[17] = system: Mus musculus; test: Compound was evaluated for MAO-A activity after 20 days of chronic peritoneal administration in mouse fore brain at dose of 0.05 mg/kg; type: functional
[18] = system: Mus musculus; test: Compound was evaluated for MAO-B activity after 9 day of chronic peritoneal administration in mouse fore brain at dose of 0.2 mg/kg; type: functional
[19] = system: Mus musculus; test: Compound was evaluated for MAO-B activity after 9 days of chronic peritoneal administration in mouse fore brain at dose of 0.05 mg/kg; type: functional
[20] = biological target: T3, Monoamine oxidase (Rattus norvegicus, UniProt P19643+P21396); type: protein assay
T3 sequence (P19643 whole entry): T1 sequence (P19643 whole entry)
T3 sequence (P21396 whole entry): T2 sequence (P21396 whole entry)

[21] = system: Mus musculus; test: Compound was evaluated for MAO-B activity after 1 day of chronic peritoneal administration in mouse fore brain at dose of 0.25 mg/kg; type: functional
[22] = system: Mus musculus; test: Compound was evaluated for MAO-A activity after 1 day of chronic peritoneal administration in mouse fore brain at dose of 0.25 mg/kg; type: functional
[23] = system: Mus musculus; test: Compound was evaluated for MAO-A activity after 13 days of chronic peritoneal administration in mouse fore brain at dose of 0.25 mg/kg; type: functional
[24] = system: Mus musculus; test: Compound was evaluated for MAO-B activity after 13 days of chronic peritoneal administration in mouse fore brain at dose of 0.25 mg/kg; type: functional
[25] = biological target: T3, Monoamine oxidase; test: Compound was evaluated for the inhibition of deamination of dopamine (DA) by Monoamine oxidase at 5 x 10e-4 M; type: protein assay
[26] = system: Mus musculus; test: Compound was evaluated for MAO-A activity after 21 days of chronic peritoneal administration in mouse fore brain at dose of 2 mg/kg; type: functional
[27] = system: Mus musculus; test: Compound was evaluated for MAO-B activity after 1 days of chronic peritoneal administration in mouse fore brain at dose of 2 mg/kg; type: functional
[28] = system: Mus musculus; test: Compound was evaluated for MAO-B activity after 10 days of chronic peritoneal administration in mouse fore brain at dose of 2 mg/kg; type: functional
[29] = system: Mus musculus; test: Compound was evaluated for MAO-B activity after 21 days of chronic peritoneal administration in mouse fore brain at dose of 2 mg/kg; type: functional
[30] = system: Mus musculus; test: Compound was evaluated for MAO-A activity after 10 days of chronic peritoneal administration in mouse fore brain at dose of 2 mg/kg; type: functional
[31] = system: Mus musculus; test: Compound was evaluated for MAO-A activity after 1 days of chronic peritoneal administration in mouse fore brain at dose of 2 mg/kg; type: functional

SMILES | IC50 [1] | IC50 [2] | ED50 [3] [µmol/kg] | ED50 [4] [µmol/kg] | Relative activity [5] [%] | Relative activity [6] [%] | ED50 [7] [µmol/kg] | other results
C#CCN(C)CCCCC(=O)OCC.O=C(O)C(=O)O | Not Active | Not Active |  |  |  |  |  | 
C#CCN(C)CCC(=O)O.O=C(O)C(=O)O | Not Active | Not Active |  |  |  |  |  | 
C#CCN(C)CCCCC.O=C(O)C(=O)O | 0.37 µM | 120 µM | > 218 | 6.8 | 97 | 72 |  | 
C#CCN(C)CCCC.Cl | 1.4 µM | 98 µM | 478 | 11.2 | 98 | 67 | 141 | 
C#CCN(C)C(C)CCCC.Cl (centres undefined) | 0.082 µM | 90 µM | 262 | 1.2 |  |  | 5.1 | Relative activity [8]: 103%; Relative activity [9]: 95%; Relative activity [10]: 55%; Relative activity [11]: 36%; Relative activity [12]: 27%; Relative activity [13]: 37%; Relative activity [14]: 104%; Relative activity [15]: 103%; Relative activity [16]: 81%; Relative activity [17]: 76%; Relative activity [18]: 35%; Relative activity [19]: 41%
C#CCN(C)C(C)CCCCC.Cl (centres undefined) | 0.21 µM | 19 µM | 127 | 2.6 | 99 | 39 |  | IC50 [20]: 0.32 µM
C#CCN(C)CCCCCCO.Cl | 120 µM | Not Active |  |  |  |  |  | 
C#CCN(C)C(C)CCCCCCCCCC.Cl (centres undefined) | 0.039 µM | 1.9 µM | 223 | 15.5 | 107 | 64 |  | IC50 [20]: 0.28 µM
C#CCN(C)C(C)CCCCCCCC.Cl (centres undefined) | 0.18 µM | 3.9 µM | 144 | 15 | 97 | 104 | 171 | Relative activity [21]: 94%; Relative activity [22]: 85%; Relative activity [23]: 79%; IC50 [20]: 0.21 µM; Relative activity [24]: 70%
C#CCN(C)C(C)CCCCO.Cl (centres undefined) | 130 µM | Not Active |  |  |  |  |  | 
C#CCNC.Cl | Not Active | Not Active |  |  |  |  |  | 
C#CCN(C)C(CC)CC | 0.18 µM | 2.4 µM | 52.9 | 2.7 |  |  |  | 
C#CCN(C)C(C)C.Cl | 19 µM | Not Active |  |  |  |  |  | IC50 [25]: 28 µM
C#CCN(C)C(C)CCC(=O)OCC.Cl (centres undefined) | Not Active | Not Active |  |  |  |  |  | 
C#CCN(C)CCCCCCC.Cl |  | 38 µM | > 491 | 75.6 | 123 | 118 |  | 
C#CCN(C)C(C)CCC.Cl.O=C(O)C(=O)O (centres undefined) | 0.18 µM | 12 µM | 114 | 1.7 | 89 | 31 | 5.2 | Relative activity [26]: 31%; Relative activity [21]: 94%; Relative activity [27]: 40%; Relative activity [28]: 19%; Relative activity [29]: 18%; Relative activity [22]: 102%; Relative activity [30]: 49%; Relative activity [23]: 89%; IC50 [20]: 5.6 µM; Relative activity [24]: 35%; Relative activity [31]: 91%
C#CCN(C)C(C)CC (centres undefined) |  |  | 69.7 | 4.2 |  |  | 31 | 
C#CCN(C)[C@H](C)Cc1ccccc1 [SELEGILINE] |  |  | 143 | 2.3 |  |  | 26.3 | 
